Reference: patent USRE39198E1, “Heteroarylpiperidines, pyrrolidines and piperazines and their use as antipsychotics and analgesics” (Aventis Pharmaceuticals Inc., priority 1989, dated 2006)

Columns and labels:
CK-1 male mice = assay: Climbing mouse assay (apomorphine-induced climbing); type: in vivo; conditions: apomorphine 1.5 mg/kg sc challenge, climbing score vs control group set to 100%, linear regression
Method: Antipsychotic activity is determined in the climbing mice assay by a method similar to those described by P. Protais, et al., Psychopharmacol., 50:1 (1976) and B. Costall, Eur. J. Pharmacol., 50:39 (1978).
Subject […] male mice (23-27 grams) are group-housed under standard laboratory conditions. The mice are individually placed in wire mesh stick cages (4″×10″) and are allowed one hour for adaption and exploration of the new environment. Then apomorphine is injected subcutaneously at 1.5 mg/kg a dose causing climbing in all subjects for 30 minutes.
For evaluation of climbing, 3 readings are taken at 10. 20, and 30 minutes after apomorphine administration according to the following scale:
Mice consistently climbing before the injection of apomorphine are discarded.
With full-developed apomorphine climbing, the animals are hanging on to the cage walls, rather motionless, over long periods of time. By contrast, climbs due to mere motor stimulation usually only last a few seconds.
The climbing scores are individually totaled (maximal score: 6 per mouse over 3readings) and the total score of the control group (vehicle intraperitoneally-apomorphine subcutaneously) is set to 100%.

mice = assay: Phenyl p-quinone writhing assay in mice; type: in vivo; conditions: dose effecting approximately 50% inhibition of writhing in mice
Text: Some of the compounds of the present invention are also useful as analgetics due so their ability to alleviate pain in mammals. […] Exptl. Biol. Med., 95:729 (1937). Thus, for instance the subcutaneous dose effecting an approximately 50% inhibition of writhing (ED50) in mice produced in this assay is as shown in Table 2.

melting point | Molecule | further results
135 to 137 °C | COc1cc(C(C)=O)ccc1OCCCN1CCN(c2n[nH]c3cc(F)ccc23)CC1 [Example 12, 1-[4-[3-[4-(6-Fluoro-1H-indazol-3-yl)-1-piperazinyl]-propoxy]-3-methoxyphenyl]ethanone] | 
139 to 141 °C | CCOC(C)c1ccc(OCCCN2CCC(c3noc4cc(F)ccc34)CC2)c(OC)c1.Cl (stereo not drawn) | 
142 to 143 °C | O=C1c2cccc(F)c2C(=O)N1CCN1CCC(c2noc3cc(F)ccc23)CC1 [Example 155, N-[2-[4-(6-Fluoro-1,2-benzisoxazol-3-yl)-1-piperidinyl]ethyl]-3-fluorophthalimide] | 
135 to 137 °C | CC(=O)c1ccc(OCCCN2CCC(c3nsc4cc(F)ccc34)CC2)c(O)c1 [Example 144, 1-[4-[3-[4-(6-Fluoro-1,2-benzisothiazol-3-yl)-1-piperidinyl]propoxy]-3-hydroxyphenyl]ethanone] | 
221 to 223 °C | COc1cc(C(C)=O)ccc1OCCCN1CCC(c2nsc3cc(F)ccc23)CC1.Cl [1-[4-[3-[4-(6-Fluoro-1,2-benzisothiazol-3-yl)-1-piperidinyl]propoxy]-3-methoxyphenyl]ethanone hydrochloride] | 
118 to 121 °C | Fc1ccc2c(C3CCN(CCCOc4ccc5[nH]ccc5c4)CC3)noc2c1 [Example 140, 6-Fluoro-3-[1-[3-[(1H-indol-5-yl)oxy]propyl]-4-piperidinyl]-1,2-benzisoxazole] | 
98 to 100 °C | COc1cc(C(C)=O)ccc1OCCN1CCN(c2nsc3ccccc23)CC1 [Example 39, 1-[4-[2-[4-(1,2-Benzisothiazol-3-yl)-1-piperazinyl]ethoxy]-3-methoxyphenyl]ethanone] | 
148 to 149 °C | O=C1c2ccccc2C(=O)N1CCN1CCC(c2noc3cc(F)ccc23)CC1 [N-[2-[4-(6-Fluoro-1,2-benzisoxazol-3-yl)-1-piperidinyl]ethyl]phthalimide] | 
93 to 96 °C | COc1cc(C(C)=O)ccc1OCCCN1CCC(c2nsc3ccccc23)CC1 [Example 10, 1-[4-[3-[4-(1,2-Benzisothiazol-3-yl)-1-piperidinyl]-propoxy]-3-methoxyphenyl]ethanone] | 
118 to 120 °C | CC(=O)Nc1ccccc1OCCCN1CCC(c2noc3cc(F)ccc23)CC1 [Example 61, N-[2-[3-[4-(6-fluoro-1,2-benzoisoxazol-3-yl)-1-piperidinyl]propoxy]phenyl]acetamide] | 

Further lines, the molecule ahead of its results:

Molecule | melting point | further results
Fc1ccc2c(C3CCN(CCC4COc5ccccc5O4)CC3)noc2c1 (stereo not drawn) [2-[4-(6-Fluoro-1,2-benzisoxazol-3-yl)-1-piperidinyl]ethyl]-1,4-benzodioxan] |  | CLIMBING MOUSE ASSAY (ED50 mg/kg, ip) (CK-1 male mice): 0.29 mg/kg
CC(=O)c1ccc(CCCCN2CCC(c3noc4cc(F)ccc34)CC2)cc1 [1-[4-(4′-Acetophenyl)butyl]-4-(6-fluoro-1,2-benzisoxazol-3-yl)piperidine] |  | CLIMBING MOUSE ASSAY (ED50 mg/kg, ip) (CK-1 male mice): 0.34 mg/kg
COc1cc(C(C)=O)ccc1OCCCN1CCC(c2noc3ccccc23)CC1 [1-[4-[3-[4-(1,2-Benzisoxazol-3-yl)-1-piperadinyl]propoxyl]-3-methoxyphenyl]ethanone] |  | CLIMBING MOUSE ASSAY (ED50 mg/kg, ip) (CK-1 male mice): 0.67 mg/kg; INHIBITION OF PHENYLQUINONE INDUCED WRITHING ED50 mg/kg, sc (mice): 0.17 mg/kg
6-Fluoro-3-[1-[3-[(isoquinol-5-yl)oxy]propyl]-4-piperidinyl]-1,2-benzisoxazole sesquifumarate |  | CLIMBING MOUSE ASSAY (ED50 mg/kg, ip) (CK-1 male mice): 0.172 mg/kg
COc1cc(C(C)O)ccc1OCCCCN1CCC(c2noc3ccccc23)CC1 (stereo not drawn) [1-[4-[4-[4-(1,2-Benzisoxazol-3-yl)-1-piperidinyl]butoxy]-3-methoxyphenyl]ethanol] | 99 to 101 °C | ED50 (CK-1 male mice; Mus musculus, ip): 1.6 mg/kg
COc1cc(C(C)=O)ccc1OCCCN1CCC(c2noc3cc(F)ccc23)CC1 [1-[4-[3-[4-(6-Fluoro-1,2-benzisoxazol-3-yl)-1-piperadinyl]propoxy]-3-methoxyphenyl]ethanone] |  | CLIMBING MOUSE ASSAY (ED50 mg/kg, ip) (CK-1 male mice): 0.095 mg/kg; INHIBITION OF PHENYLQUINONE INDUCED WRITHING ED50 mg/kg, sc (mice): 0.03 mg/kg
CC(C)(CO)CN1CCC(c2noc3cc(F)ccc23)CC1.O=C(O)/C=C/C(=O)O | 144 to 145 °C | 
COc1cc(C(C)=O)ccc1OCCCCN1CCN(c2n[nH]c3cc(Cl)ccc23)CC1 [Example 36, 1-[4-[4-[4-(6-Chloro-1H-indazol-3-yl)-1-piperazinyl]butoxy]-3-methoxyphenyl]ethanone] | 189 to 191 °C | 
COc1cc(C(C)=O)ccc1OCCCCN1CCC(c2noc3cc(F)ccc23)CC1 [1-[4-[4-[4-(6-Fluoro-1,2-benzisoxazol-3-yl)-1-piperidinyl)butoxy]-3-methoxyohenylethanone] |  | CLIMBING MOUSE ASSAY (ED50 mg/kg, ip) (CK-1 male mice): 0.68 mg/kg
Cl.O=C1[C@H]2CCCC[C@H]2C(=O)N1CCCN1CCC(c2noc3cc(F)ccc23)CC1 | 242 to 245 °C | 
O=C1c2cc(Cl)c(Cl)cc2C(=O)N1CCN1CCC(c2noc3cc(F)ccc23)CC1 [Example 151, N-[2-[4-(6-Fluoro-1,2-benzisoxazol-3-yl)-1-piperidinyl]ethyl]-4,5-dichlorophthalimide] | 132 to 134 °C | 
OCCCN1CCC(c2noc3cc(F)ccc23)CC1 [6-Fluoro-3-[1-(3-hydroxypropyl)-4-piperidinyl]-1,2-benzisoxazole] | 140 to 142 °C | 
CC(=O)NCCN1CCC(c2noc3cc(F)ccc23)CC1.O=C(O)/C=C/C(=O)O | 132 to 133 °C | 
C[C@@H](CO)CN1CCC(c2noc3cc(F)ccc23)CC1.O=C(O)/C=C/C(=O)O | 114 to 115 °C | 
